Measured values reported in patent US20250177473A1, “PEPTIDE REGULATORS OF METABOLISM” (Metabico, Inc., priority 2022, published 2025).

System: C57BL/6 mice on a high-fat diet
Experiment: Glucose tolerance test in mice on high-fat diet (HFD), acute administration
Format: in vivo, mouse
Details: Metformin 250 mg/kg single p.o.
Protocol: A standard laboratory rodent pellet SNIFF RI/M-H V1534-30 (58% carbohydrates, 9% fat, 33% protein, 306 kcal/100 g) was given ad libitum to the control animals. For HFD groups, the high-fat feed was used. For 1 kg of feed, 610 g of ground SNIFF feed and 360 g of melted pork lard were taken, water (˜250 ml, 60-70° C.), 10 g of sodium chloride, 30 g of sodium glutamate were added. The mixture was brewed to a dough consistency, and food granules were formed. Then the granules were dried at 60-70° C. for 10-12 hours. The finished food for consumption was transferred to the animal-keeping area. The prepared food was stored at 4° C. for no more than 7 days. The approximate energy value of the HFD feed was 516 kcal/100 g (45% fat, 35% carbohydrates, 20% protein).
The metabolic syndrome was modeled by keeping animals on a HFD for 16 weeks. The control group was kept on a standard diet (STD) during this period. Animals had free access to feed and water located in the cage lid.
At stage 1 of the study, to replicate the metabolic syndrome, 25 mice were kept on a STD (group 1), 140 mice—on a HFD (groups 2-5). The animals' body weight was monitored weekly. By the end of the 16th week, mice with the maximum gain were selected among the animals kept on a HFD, and four groups of 25 animals were formed.
On the day of the experiment, animals from groups 3-5 were injected with the tested substances: one half of the group (12 or 13 animals) 2 hours before the experiment and the other half—12 hours. Group 1 and 2 (STD control and HFD control) were injected with saline (Table 5).
The administration volume was 10 ml/kg for drugs administered i.p., 6 μl/animal for i.n. administration and 5 ml/kg for drugs administered p.o.
The animals were deprived of food for 12 hours before the glucose tolerance test and euthanasia. Animals had free access to water.
The animals were deprived of food for 12 hours before the test. Baseline glucose level was measured at the end of fasting (0 min time point) in the blood drop taken from the tip of the tail by incision (with a needle) of the tail vein. The test substances were administered according to the treatment group. Half of the animals received drug injections 2 hours, and the other half—12 hours before the test. The glucose concentration in the blood was determined 15, 30, 60, 120 minutes after i.p. 40% glucose solution administration in a dose of […] with Satellite Express (Elta, Russia) test system.

Compound: CN(C)C(=N)N=C(N)N [Metformin]
- AUC of glucose in GTT (2 h post-treatment): 1808 ± 131 mmol/L/min
- glucose concentration in GTT (2 h post-treatment, 0 min (basal)): 7.2 ± 0.374 mmol/L
- glucose concentration in GTT (2 h post-treatment, 60 min after glucose): 15.55 ± 1.46 mmol/L
- glucose concentration in GTT (2 h post-treatment, 120 min after glucose): 10.08 ± 0.875 mmol/L
- AUC of glucose in GTT (12 h post-treatment): 1857 ± 149 mmol/L/min
- glucose concentration in GTT (12 h post-treatment, 0 min): 7.0 ± 0.7 mmol/L
- glucose concentration in GTT (12 h post-treatment, 60 min after glucose): 15.7 ± 1.8 mmol/L
- glucose concentration in GTT (12 h post-treatment, 120 min after glucose): 11.2 ± 1.4 mmol/L
